Experimental data: PMC13626384 (Journal of medicinal chemistry, 2025)
Where two headings read alike, the source gives them in different places.

Tests used:
[1] = tested on: D283-med cell line; assay: Cytotoxicity against D283-med cells; format: cell-based, human
[2] = tested on: SF188 cell line; assay: Cytotoxicity against SF188 cells; format: cell-based, human
[3] = PAMPA-BBB permeability assay
[4] = tested on: H460 cell line; assay: Cytotoxicity against H460 cells; format: cell-based; details: read-out: H460 IC50; non-small cell lung cancer cell line
[5] = Homo sapiens, D283 Med, read-out: D283-med IC50, medulloblastoma cell line
[6] = Homo sapiens, SF-188, read-out: SF188 IC50, glioblastoma cell line
[7] = read-out: D283-med IC50, medulloblastoma cell line
[8] = read-out: SF188 IC50, glioblastoma cell line

Compound: CCCCCC(=O)N[C@H](C(=O)NC(CSc1c(F)c(F)c(F)c(F)c1F)C(=O)N[C@@H](CC(C)C)C(=O)[C@@]1(C)CO1)C(C)C (stereo in doubt) [Compound 1, N-((S)-3-Methyl-1-(((S)-1-(((S)-4-methyl-1-((R)-2-methyloxiran-2-yl)-1-oxopentan-2-yl)amino)-1-oxo-3-((perfluorophenyl)thio)propan-2-yl)amino)-1-oxobutan-2-yl)hexanamide]
- IC50 [1, 5]: 236 ± 27 nM
- IC50 [2, 6]: 143 ± 18 nM
- Mean Permeability ([3]; PAMPA-BBB): 0.63 10^−6 cm/sec

Compound: CC(C)C[C@H](NC(=O)C(CSc1c(F)c(F)c(F)c(F)c1F)NC(=O)[C@@H](NC(=O)Cc1c(F)c(F)c(F)c(F)c1F)C(C)C)C(=O)[C@@]1(C)CO1 (stereo in doubt) [Compound 3, (S)-3-Methyl-N-((S)-1-(((S)-4-methyl-1-((R)-2-methyloxiran-2-yl)-1-oxopentan-2-yl)amino)-1-oxo-3-((perfluorophenyl)thio)propan-2-yl)-2-(2-(perfluorophenyl)acetamido)butanamide]
- IC50 [1, 5]: 102 ± 7 nM
- IC50 [2, 6]: 213 ± 10 nM

Compound: CCCCCC(=O)N[C@H](C(=O)N[C@@H](CCS(C)(=O)=O)C(=O)N[C@@H](CC(C)C)C(=O)[C@@]1(C)CO1)C(C)C [Carmaphycin B, reference compound]
- IC50 [1, 7]: 13 ± 2 nM
- IC50 [2, 8]: 19 ± 2 nM
- IC50 [4]: 111 ± 30 nM

Compound: CC(C)C[C@H](NC(=O)[C@@H](CSc1c(F)c(F)c(F)c(F)c1F)NC(=O)Cc1c(F)c(F)c(F)c(F)c1F)C(=O)[C@@]1(C)CO1 [Compound 5, (S)-N-((S)-4-Methyl-1-((R)-2-methyloxiran-2-yl)-1-oxopentan-2-yl)-2-(2-(perfluorophenyl)acetamido)-3-((perfluorophenyl)thio)propenamide]
- IC50 [1, 7]: > 10000 nM
- IC50 [2, 8]: > 10000 nM
- IC50 [4]: > 10000 nM

Compound: CC(C)C[C@H](NC(=O)[C@@H](CSc1c(F)c(F)c(F)c(F)c1F)NC(=O)c1cc(Cl)ccc1Cl)C(=O)[C@@]1(C)CO1 [Compound 6, 2,5-Dichloro-N-((S)-1-(((S)-4-methyl-1-((R)-2-methyloxiran-2-yl)-1-oxopentan-2-yl)amino)-1-oxo-3-((perfluorophenyl)thio)propan-2-yl)benzamide]
- IC50 [1, 5]: > 10000 nM
- IC50 [2, 6]: 4080 ± 770 nM

Compound: CC(C)C[C@H](NC(=O)CNC(=O)Cc1c(F)c(F)c(F)c(F)c1F)C(=O)[C@@]1(C)CO1 [Compound 7, N-((S)-4-Methyl-1-((R)-2-methyloxiran-2-yl)-1-oxopentan-2-yl)-2-(2-(perfluorophenyl)acetamido)acetamide]
- IC50 [1, 5]: > 10000 nM
- IC50 [2, 6]: > 10000 nM

Compound: CC(C)C[C@H](NC(=O)CNC(=O)c1cc(Cl)ccc1Cl)C(=O)[C@@]1(C)CO1 [Compound 8, 2,5-Dichloro-N-(2-(((S)-4-methyl-1-((R)-2-methyloxiran-2-yl)-1-oxopentan-2-yl)amino)-2-oxoethyl)benzamide]
- IC50 [1, 5]: 3700 ± 270 nM
- IC50 [2, 6]: 532 ± 23 nM

Compound: CC(C)C[C@H](NC(=O)[C@@H]1Cc2c(F)c(F)c(c(F)c2F)Sc2ccc(cc2)CC(=O)N[C@@H](C(C)C)C(=O)N1)C(=O)[C@@]1(C)CO1 [Compound 9, (5S,8S)-3^2,3^3,3^5,3^6-Tetrafluoro-8-isopropyl-N-((S)-4-methyl-1-((R)-2-methyloxiran-2-yl)-1-oxopentan-2-yl)-7,10-dioxo-2-thia-6,9-diaza-1,3(1,4)-dibenzenacycloundecaphane-5-carboxamide]
- IC50 [2, 8]: 87 nM
- IC50 [4]: 754 nM

Compound: CC(C)C[C@H](NC(=O)[C@@H]1Cc2c(F)c(F)c(c(F)c2F)Sc2cccc(c2)CC(=O)N[C@@H](C(C)(C)C)C(=O)N1)C(=O)[C@@]1(C)CO1 [Compound 12, (5S,8S)-8-(Tert-butyl)-3^2,3^3,3^5,3^6-tetrafluoro-N-((S)-4-methyl-1-((R)-2-methyloxiran-2-yl)-1-oxopentan-2-yl)-7,10-dioxo-2-thia-6,9-diaza-1(1,3),3(1,4)-dibenzenacycloundecaphane-5-carboxamide]
- IC50 [1, 7]: 432 ± 74 nM
- IC50 [2, 8]: 507 ± 134 nM
- IC50 [4]: 2470 nM

Compound: CC(C)C[C@H](NC(=O)[C@@H]1Cc2c(F)c(F)c(c(F)c2F)Sc2cccc(c2)CC(=O)N2C[C@H]3[C@@H]([C@H]2C(=O)N1)C3(C)C)C(=O)[C@@]1(C)CO1 [Compound 13, (61S,64S,65R,9S)-1^2,1^3,1^5,1^6-Tetrafluoro-6^6,6^6-dimethyl-N-((S)-4-methyl-1-((R)-2-methyloxiran-2-yl)-1-oxopentan-2-yl)-5,7-dioxo-2-thia-6^3,8-diaza-6(3,4)-bicyclo[3.1.0]hexana-1(1,4),3(1,3)-dibenzenacyclodecaphane-9-carboxamide]
- IC50 [1, 7]: > 15000 nM
- IC50 [2, 8]: > 15000 nM
- IC50 [4]: > 15000 nM

Compound: CC(C)C[C@H](NC(=O)[C@@H]1Cc2c(F)c(F)c(c(F)c2F)Sc2cccc(c2)CC(=O)N[C@H](C(C)C)CC(=O)N1)C(=O)[C@@]1(C)CO1 [Compound 16, (5S,9S)-3^2,3^3,3^5,3^6-Tetrafluoro-9-isopropyl-N-((S)-4-methyl-1-((R)-2-methyloxiran-2-yl)-1-oxopentan-2-yl)-7,11-dioxo-2-thia-6,10-diaza-1(1,3),3(1,4)-dibenzenacyclododecaphane-5-carboxamide]
- IC50 [1, 7]: 6090 nM
- IC50 [2, 8]: > 15000 nM
- IC50 [4]: > 15000 nM

Compound: CC(C)C[C@H](NC(=O)[C@@H]1Cc2c(F)c(F)c(c(F)c2F)Sc2cccc(c2)CC(=O)N[C@@H](C(C)C)CC(=O)N1)C(=O)[C@@]1(C)CO1 [Compound 17, (5S,9R)-3^2,3^3,3^5,3^6-Tetrafluoro-9-isopropyl-N-((S)-4-methyl-1-((R)-2-methyloxiran-2-yl)-1-oxopentan-2-yl)-7,11-dioxo-2-thia-6,10-diaza-1(1,3),3(1,4)-dibenzenacyclododecaphane-5-carboxamide]
- IC50 [1, 7]: 1800 nM
- IC50 [2, 8]: 2460 nM
- IC50 [4]: 5380 nM

Compound: CC(C)C[C@H](NC(=O)[C@@H]1Cc2c(F)c(F)c(c(F)c2F)Sc2cccc(c2)CC(=O)N(C)[C@@H](C(C)C)C(=O)N1)C(=O)[C@@]1(C)CO1 [Compound 19, (5S,8S)-3^2,3^3,3^5,3^6-Tetrafluoro-8-isopropyl-9-methyl-N-((S)-4-methyl-1-((R)-2-methyloxiran-2-yl)-1-oxopentan-2-yl)-7,10-dioxo-2-thia-6,9-diaza-1(1,3),3(1,4)-dibenzenacycloundecaphane-5-carboxamide]
- IC50 [1, 7]: 10800 nM
- IC50 [2, 8]: 12300 nM
- IC50 [4]: > 15000 nM

Compound: CC(C)C[C@H](NC(=O)[C@@H]1Cc2c(F)c(F)c(c(F)c2F)Sc2cccc(c2)CC(=O)NC(C)(C)C(=O)N1)C(=O)[C@@]1(C)CO1 [Compound 20, (S)-3^2,3^3,3^5,3^6-Tetrafluoro-8,8-dimethyl-N-((S)-4-methyl-1-((R)-2-methyloxiran-2-yl)-1-oxopentan-2-yl)-7,10-dioxo-2-thia-6,9-diaza-1(1,3),3(1,4)-dibenzenacycloundecaphane-5-carboxamide]
- IC50 [1, 7]: 662 ± 44 nM
- IC50 [2, 8]: 611 ± 85 nM
- IC50 [4]: 828 ± 57 nM

Compound: CC(C)C[C@H](NC(=O)[C@@H]1Cc2c(F)c(F)c(c(F)c2F)Sc2cccc(c2)CC(=O)NCC(=O)N1)C(=O)[C@@]1(C)CO1 [Compound 21, (S)-32,33,35,36-Tetrafluoro-N-((S)-4-methyl-1-((R)-2-methyloxiran-2-yl)-1-oxopentan-2-yl)-7,10-dioxo-2-thia-6,9-diaza-1(1,3),3(1,4)-dibenzenacycloundecaphane-5-carboxamide]
- IC50 [1, 7]: 5000 nM
- IC50 [2, 8]: > 15000 nM
- IC50 [4]: > 15000 nM

Compound: CC(C)C[C@H](NC(=O)[C@@H]1Cc2c(F)c(F)c(c(F)c2F)[S+]([O-])c2cccc(c2)CC(=O)N[C@@H](C(C)(C)O)C(=O)N1)C(=O)[C@@]1(C)CO1 (stereo partly drawn) [Compound 23, (5S,8S)-3^2,3^3,3^5,3^6-Tetrafluoro-8-(2-hydroxypropan-2-yl)-N-((S)-4-methyl-1-((R)-2-methyloxiran-2-yl)-1-oxopentan-2-yl)-7,10-dioxo-2-thia-6,9-diaza-1(1,3),3(1,4)-dibenzenacycloundecaphane-5-carboxamide 2-oxide]
- IC50 [1, 7]: 176 ± 2 nM
- IC50 [2, 8]: 205 ± 21 nM
- IC50 [4]: 1640 ± 87 nM

Compound: CC(C)CC(NC(=O)C1Cc2c(F)c(F)c(c(F)c2F)S(=O)(=O)c2cccc(c2)CC(=O)NC(C(C)C)CC(=O)N1)C(=O)C1(C)CO1 [Compound 25, (5S,9S)-3^2,3^3,3^5,3^6-Tetrafluoro-9-isopropyl-N-((S)-4-methyl-1-((R)-2-methyloxiran-2-yl)-1-oxopentan-2-yl)-7,11-dioxo-2-thia-6,10-diaza-1(1,3),3(1,4)-dibenzenacyclododecaphane-5-carboxamide 2,2-dioxide]
- IC50 [1, 7]: > 15000 nM
- IC50 [2, 8]: > 15000 nM
- IC50 [4]: > 15000 nM

Compound: CC(C)C[C@H](NC(=O)[C@@H]1Cc2c(F)c(F)c(c(F)c2F)S(=O)(=O)c2cccc(c2)CC(=O)N[C@@H](C(C)C)CC(=O)N1)C(=O)[C@@]1(C)CO1 [Compound 26, (5S,9R)-3^2,3^3,3^5,3^6-Tetrafluoro-9-isopropyl-N-((S)-4-methyl-1-((R)-2-methyloxiran-2-yl)-1-oxopentan-2-yl)-7,11-dioxo-2-thia-6,10-diaza-1(1,3),3(1,4)-dibenzenacyclododecaphane-5-carboxamide 2,2-dioxide]
- IC50 [1, 7]: 472 ± 36 nM
- IC50 [2, 8]: 673 ± 50 nM
- IC50 [4]: 2360 nM

Compound: CC(=O)O[C@@H](C)[C@@H]1NC(=O)Cc2cccc(c2)S(=O)(=O)c2c(F)c(F)c(c(F)c2F)C[C@@H](C(=O)N[C@@H](CC(C)C)C(=O)[C@@]2(C)CO2)NC1=O [Compound 28, (S)-1-((5S,8S)-3^2,3^3,3^5,3^6-Tetrafluoro-5-(((S)-4-methyl-1-((R)-2-methyloxiran-2-yl)-1-oxopentan-2-yl)carbamoyl)-2,2-dioxido-7,10-dioxo-2-thia-6,9-diaza-1(1,3),3(1,4)-dibenzenacycloundecaphane-8-yl)ethyl acetate]
- IC50 [1, 7]: 44 ± 6 nM
- IC50 [2, 8]: 148 ± 35 nM
- IC50 [4]: 549 ± 21 nM

Compound: Cc1ncc2n1-c1ccc(Cl)cc1C(c1ccccc1F)=NC2 [Midazolam, reference compound]
- Papp ([3]; PAMPA): 6.8 ×10⁻⁶ cm/s
- recovery ([3]; PAMPA): 84%

Compound: Cn1c(=O)c2[nH]cnc2n(C)c1=O [Theophylline, reference compound]
- recovery ([3]; PAMPA, % Recovery, PAMPA-BBB): 96%
